Results as given in patent US6737383B1, “Herbicidal oxadiazolidines” (priority 1999, dated 2004).

What was measured:
pigweed = test: Test B pre/postemergence pigweed; type: in vivo, Amaranthus retroflexus
Procedure, shortened: (§1)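 Response is a visual 0-to-10 score relative to untreated plants, where 0 means no effect and 10 means complete control, taken twelve to sixteen days after application. Treatments went onto soil at planting and onto foliage of 1- to 4-leaf plants, using a surfactant-containing non-phytotoxic solvent.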

cocklebur = test: Test B pre/postemergence cocklebur; type: in vivo, Xanthium strumarium
Procedure, shortened: as §1

morningglory = test: Test B pre/postemergence morningglory; type: in vivo, Ipomoea hederacea
Procedure, shortened: as §1

wheat = test: Test B pre/postemergence wheat; type: in vivo, Triticum aestivum
Procedure, shortened: as §1

wild oat = test: Test B pre/postemergence wild oat; type: in vivo, Avena fatua
Procedure, shortened: as §1

corn = test: Test B pre/postemergence corn; type: in vivo, Zea mays
Procedure, shortened: as §1

giant foxtail = test: Test B pre/postemergence giant foxtail; type: in vivo, Setaria faberii
Procedure, shortened: as §1

smallflower flatsedge = test: Test B flood test smallflower flatsedge; type: in vivo, Cyperus difformis
Procedure, shortened: (§2)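 Flood test on plants grown to the 2-leaf stage; treated plants kept in greenhouse twelve to sixteen days, then visually rated against controls on a 0 (no effect) to 10 (complete control) scale.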

crabgrass = test: Test B pre/postemergence crabgrass; type: in vivo, Digitaria sanguinalis
Procedure, shortened: as §1

duck salad = test: Test B flood test duck salad; type: in vivo, Heteranthera limosa
Procedure, shortened: as §2

purple nutsedge = test: Test B pre/postemergence purple nutsedge; type: in vivo, Cyperus rotundus
Procedure, shortened: as §1

velvetleaf = test: Test B pre/postemergence velvetleaf; type: in vivo, Abutilon theophrasti
Procedure, shortened: as §1

soybean = test: Test B pre/postemergence soybean; type: in vivo, Glycine max
Procedure, shortened: as §1

rape = test: Test B pre/postemergence rape; type: in vivo, Brassica napus
Procedure, shortened: as §1

bedstraw = test: Test B pre/postemergence bedstraw; type: in vivo, Galium aparine
Procedure, shortened: as §1

rice = test: Test B flood test rice; type: in vivo, Oryza sativa
Procedure, shortened: as §2

[1] = Postemergence, Rate 62 g/ha, scale 0 to 10, 0 is no effect, 10 is complete control
[2] = Postemergence, Rate 250 g/ha, scale 0 to 10, 0 no effect, 10 complete control
[3] = Preemergence, Rate 62 g/ha, scale 0 to 10, 0 is no effect, 10 is complete control
[4] = Preemergence, Rate 125 g/ha, scale 0 to 10 (0 no effect, 10 complete control)
[5] = Preemergence, Rate 250 g/ha, scale of 0 to 10 where 0 is no effect and 10 is complete control
[6] = Preemergence, Rate 500 g/ha, scale 0 (no effect) to 10 (complete control)
[7] = Rate 125 g/ha, Postemergence, scale 0 to 10, 0 no effect, 10 complete control
[8] = Rate 500 g/ha, Postemergence, 0 to 10 scale (0 no effect, 10 complete control)
[9] = Rate 125 g/ha, Postemergence section (flood test species), scale 0 to 10, 0 no effect, 10 complete control
[10] = flood test, listed under Postemergence, Rate 250 g/ha, scale 0 to 10, 0 no effect, 10 complete control
[11] = Rate 31 g/ha, Postemergence section (flood test species), scale 0 to 10

CC(C)N(C(=O)n1oc(=O)n(-c2ccccc2OC(F)(F)F)c1=O)c1ccc(F)cc1 [Compound 14]
8: Crabgrass plant response rating (crabgrass; [8])
4: Morningglory plant response rating (morningglory; [2]) | Corn plant response rating (corn; [6]) | Bedstraw plant response rating (bedstraw; [6])
3: Redroot pigweed plant response rating (pigweed; [2]) | Giant foxtail plant response rating (giant foxtail; [8])
6: Redroot pigweed plant response rating (pigweed; [6]) | Redroot pigweed plant response rating (pigweed; [8]) | Morningglory plant response rating (morningglory; [8]) | Plant response rating, Giant foxtail (giant foxtail; [3])
2: Redroot pigweed plant response rating (pigweed; [7]) | Morningglory plant response rating (morningglory; [7]) | Soybean plant response rating (soybean; [1]) | Soybean plant response rating (soybean; [2]) | Soybean plant response rating (soybean; [7])
9: Plant response rating, Giant foxtail (giant foxtail; [4]) | Plant response rating, Giant foxtail (giant foxtail; [5]) | Giant foxtail plant response rating (giant foxtail; [6]) | Plant response rating, Crabgrass (crabgrass; [5]) | Crabgrass plant response rating (crabgrass; [6])
0: Redroot pigweed plant response rating (pigweed; [1]) | Plant response rating, Redroot pigweed (pigweed; [3]) | Plant response rating, Redroot pigweed (pigweed; [4]) | Plant response rating, Redroot pigweed (pigweed; [5]) | Cocklebur plant response rating (cocklebur; [1]) | Cocklebur plant response rating (cocklebur; [2]) | Plant response rating, Cocklebur (cocklebur; [3]) | Plant response rating, Cocklebur (cocklebur; [4]) | Plant response rating, Cocklebur (cocklebur; [5]) | Cocklebur plant response rating (cocklebur; [6]) | Cocklebur plant response rating (cocklebur; [7]) | Cocklebur plant response rating (cocklebur; [8]) | Plant response rating, Morningglory (morningglory; [3]) | Plant response rating, Morningglory (morningglory; [4]) | Plant response rating, Morningglory (morningglory; [5]) | Morningglory plant response rating (morningglory; [6]) | Wheat plant response rating (wheat; [1]) | Wheat plant response rating (wheat; [2]) | Plant response rating, Wheat (wheat; [3]) | Plant response rating, Wheat (wheat; [4]) | Plant response rating, Wheat (wheat; [5]) | Wheat plant response rating (wheat; [6]) | Wheat plant response rating (wheat; [7]) | Wild oats plant response rating (wild oat; [1]) | Wild oats plant response rating (wild oat; [2]) | Plant response rating, Wild oats (wild oat; [4]) | Plant response rating, Wild oats (wild oat; [5]) | Wild oats plant response rating (wild oat; [6]) | Wild oats plant response rating (wild oat; [7]) | Corn plant response rating (corn; [1]) | Corn plant response rating (corn; [2]) | Plant response rating, Corn (corn; [3]) | Plant response rating, Corn (corn; [4]) | Plant response rating, Corn (corn; [5]) | Corn plant response rating (corn; [7]) | Corn plant response rating (corn; [8]) | Giant foxtail plant response rating (giant foxtail; [1]) | Giant foxtail plant response rating (giant foxtail; [2]) | Giant foxtail plant response rating (giant foxtail; [7]) | S. Flatsedge plant response rating (smallflower flatsedge; [1]) | S. Flatsedge plant response rating (smallflower flatsedge; [9]) | S. Flatsedge plant response rating (smallflower flatsedge; [10]) | Crabgrass plant response rating (crabgrass; [1]) | Crabgrass plant response rating (crabgrass; [2]) | Plant response rating, Crabgrass (crabgrass; [3]) | Plant response rating, Crabgrass (crabgrass; [4]) | Crabgrass plant response rating (crabgrass; [7]) | Ducksalad plant response rating (duck salad; [1]) | Ducksalad plant response rating (duck salad; [11]) | Ducksalad plant response rating (duck salad; [9]) | Ducksalad plant response rating (duck salad; [10]) | Nutsedge plant response rating (purple nutsedge; [1]) | Nutsedge plant response rating (purple nutsedge; [2]) | Plant response rating, Nutsedge (purple nutsedge; [3]) | Plant response rating, Nutsedge (purple nutsedge; [4]) | Plant response rating, Nutsedge (purple nutsedge; [5]) | Nutsedge plant response rating (purple nutsedge; [6]) | Nutsedge plant response rating (purple nutsedge; [7]) | Nutsedge plant response rating (purple nutsedge; [8]) | Velvetleaf plant response rating (velvetleaf; [1]) | Velvetleaf plant response rating (velvetleaf; [2]) | Plant response rating, Velvetleaf (velvetleaf; [3]) | Plant response rating, Velvetleaf (velvetleaf; [4]) | Plant response rating, Velvetleaf (velvetleaf; [5]) | Velvetleaf plant response rating (velvetleaf; [6]) | Velvetleaf plant response rating (velvetleaf; [7]) | Plant response rating, Soybean (soybean; [3]) | Plant response rating, Soybean (soybean; [4]) | Plant response rating, Soybean (soybean; [5]) | Soybean plant response rating (soybean; [6]) | Rape plant response rating (rape; [1]) | Rape plant response rating (rape; [2]) | Plant response rating, Rape (rape; [3]) | Plant response rating, Rape (rape; [4]) | Plant response rating, Rape (rape; [5]) | Rape plant response rating (rape; [6]) | Rape plant response rating (rape; [7]) | Rape plant response rating (rape; [8]) | Bedstraw plant response rating (bedstraw; [1]) | Bedstraw plant response rating (bedstraw; [2]) | Plant response rating, Bedstraw (bedstraw; [3]) | Plant response rating, Bedstraw (bedstraw; [4]) | Plant response rating, Bedstraw (bedstraw; [5]) | Bedstraw plant response rating (bedstraw; [7]) | Rice plant response rating (rice; [1]) | Rice plant response rating (rice; [11]) | Rice plant response rating (rice; [9]) | Rice plant response rating (rice; [10])
1: Morningglory plant response rating (morningglory; [1]) | Bedstraw plant response rating (bedstraw; [8])
